Square brackets hold non-standard residues; d marks the D form. Peptide text beside a SMILES is read from it. Cha = N[C@@H](CC1CCCCC1)C(=O)O; Ahx = NCCCCCC(=O)O
Target: Neuropeptide Y receptor type 2 (Oryctolagus cuniculus)
Experiment: Compound was evaluated for its inhibitory activity against Y2 receptor of rabbit kidney membrane

IC50 [nM] | Compound
8 | CC[C@H](C)[C@H](NC(=O)[C@H](Cc1ccc(O)cc1)NC(=O)[C@H](Cc1c[nH]cn1)NC(=O)[C@H](CCCN=C(N)N)NC(C)=O)C(=O)N[C@@H](CC(N)=O)C(=O)N[C@@H](CC1CCCCC1)C(=O)N[C@@H](CC1CCCCC1)C(=O)N[C@H](C(=O)N[C@@H](CCCN=C(N)N)C(=O)N[C@@H](CCC(N)=O)C(=O)N[C@@H](CCCN=C(N)N)C(=O)N[C@@H](Cc1ccc(O)cc1)C(=O)O)[C@@H](C)O [Ac-RHYIN-(Cha)-(Cha)-TRQRY] (Ac-RHYIN[Cha][Cha]TRQRY-OH)
16 | CC[C@H](C)[C@H](NC(=O)[C@H](Cc1ccc(O)cc1)NC(=O)[C@H](Cc1c[nH]cn1)NC(=O)[C@H](CCCN=C(N)N)NC(C)=O)C(=O)N[C@@H](CC(N)=O)C(=O)N[C@@H](CC1CCCCC1)C(=O)N[C@H](C(=O)N[C@H](C(=O)N[C@@H](CCCN=C(N)N)C(=O)N[C@@H](CCC(N)=O)C(=O)N[C@@H](CCCN=C(N)N)C(=O)N[C@@H](Cc1ccc(O)cc1)C(=O)O)[C@@H](C)O)[C@@H](C)CC [Ac-RHYIN-(Cha)-ITRQRY] (Ac-RHYIN[Cha]ITRQRY-OH)
180 | CC[C@H](C)[C@H](NC(=O)[C@H](Cc1ccc(O)cc1)NC(=O)[C@H](Cc1cnc[nH]1)NC(=O)[C@H](CCCNC(=N)N)NC(=O)CCCCCNC(=O)[C@H](CCCCN)NC(=O)[C@H](CO)NC(=O)[C@@H]1CCCN1C(=O)[C@@H](N)Cc1ccc(O)cc1)C(=O)N[C@@H](CC(N)=O)C(=O)N[C@@H](CC(C)C)C(=O)N[C@H](C(=O)N[C@H](C(=O)N[C@@H](CCCNC(=N)N)C(=O)N[C@@H](CCC(N)=O)C(=O)N[C@@H](CCCNC(=N)N)C(=O)N[C@@H](Cc1ccc(O)cc1)C(N)=O)[C@@H](C)O)[C@@H](C)CC [Neuropeptide Y analogue] (H-YPSK[Ahx]RHYINLITRQRY-NH2)
